Consider 26 molecules from ChEMBL document CHEMBL1125129, “Design of potent and selective linear antagonists of vasopressor (V1-receptor) responses to vasopressin” (J Med Chem, 1990).

The target of one assay is Vasopressin V2 receptor (Rattus norvegicus, UniProt Q00788). Description: Vasopressin V2 receptor antagonistic activity in vivo in anesthetized rats. Format: functional, organism-based. The note with it: read-out: pA2 (converted).
In the next assay the target is Vasopressin V1 receptor (Rattus norvegicus, UniProt P48974+P30560). Nature of the assay: pA2 value was determined for Vasopressin V1 receptor antagonistic activity in vivo in anesthetized rats. Format: functional, organism-based.
Assay [1] deals with Vasopressin V2 receptor (Rattus norvegicus) (UniProt Q00788). Nature of the assay: Effective dose was determined for Vasopressin V2 receptor antagonistic activity in vivo in anesthetized rats. Format: functional, organism-based.
Vasopressin V2 receptor (Rattus norvegicus), sequence (Q00788 whole entry): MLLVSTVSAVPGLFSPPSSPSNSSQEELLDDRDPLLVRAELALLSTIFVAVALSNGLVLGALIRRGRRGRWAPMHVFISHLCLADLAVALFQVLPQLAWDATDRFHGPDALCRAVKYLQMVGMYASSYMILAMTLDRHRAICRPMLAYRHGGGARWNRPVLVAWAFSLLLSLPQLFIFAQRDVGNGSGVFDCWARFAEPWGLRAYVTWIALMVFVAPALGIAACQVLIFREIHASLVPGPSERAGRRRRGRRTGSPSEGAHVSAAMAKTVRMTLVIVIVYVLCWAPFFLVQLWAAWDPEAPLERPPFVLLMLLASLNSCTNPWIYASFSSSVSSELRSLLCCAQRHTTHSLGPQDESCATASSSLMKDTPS
For assay [2] the target is unchanged. Description: Selectivity ratio of antidiuretic Vasopressin V2 receptor ED /[…] receptor ED. The note with it: Urine.
Assay [3] addresses Vasopressin V1 receptor (Rattus norvegicus) (UniProt P48974+P30560). Description: Effective dose was determined for Vasopressin V1 receptor antagonistic activity in vivo in anesthetized rats. In kind it is functional, organism-based.

Vasopressin V2 receptor, sequence (Q00788 whole entry): as above
Vasopressin V1 receptor (Rattus norvegicus), sequence (P30560 whole entry, looked up): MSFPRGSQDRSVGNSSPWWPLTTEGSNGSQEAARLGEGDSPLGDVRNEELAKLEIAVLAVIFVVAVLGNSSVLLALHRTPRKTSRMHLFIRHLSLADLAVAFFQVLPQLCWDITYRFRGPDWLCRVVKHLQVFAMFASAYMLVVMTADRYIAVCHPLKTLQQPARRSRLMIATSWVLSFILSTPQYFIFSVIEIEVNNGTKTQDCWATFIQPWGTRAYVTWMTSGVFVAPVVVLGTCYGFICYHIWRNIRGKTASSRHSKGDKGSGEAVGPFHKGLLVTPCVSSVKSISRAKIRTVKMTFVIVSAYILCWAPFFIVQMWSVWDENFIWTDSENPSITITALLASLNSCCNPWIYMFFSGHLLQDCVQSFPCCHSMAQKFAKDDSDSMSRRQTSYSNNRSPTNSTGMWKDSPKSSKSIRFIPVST
Vasopressin V1 receptor (Rattus norvegicus), sequence (P48974 whole entry, looked up): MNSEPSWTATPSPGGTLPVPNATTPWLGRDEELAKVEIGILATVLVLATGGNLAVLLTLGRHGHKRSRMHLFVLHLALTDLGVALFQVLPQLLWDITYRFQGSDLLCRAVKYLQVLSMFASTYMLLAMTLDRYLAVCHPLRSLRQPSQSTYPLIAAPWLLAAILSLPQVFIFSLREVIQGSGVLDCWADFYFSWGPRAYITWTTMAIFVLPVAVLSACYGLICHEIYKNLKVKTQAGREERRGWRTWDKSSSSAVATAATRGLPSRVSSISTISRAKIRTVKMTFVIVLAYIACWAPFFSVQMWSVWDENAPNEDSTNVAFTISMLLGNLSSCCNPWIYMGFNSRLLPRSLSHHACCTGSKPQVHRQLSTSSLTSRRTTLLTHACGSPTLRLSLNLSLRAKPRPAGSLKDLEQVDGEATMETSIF

`CCOc1ccc(C[C@@H](NC(=O)CC(C)(C)C)C(=O)N[C@@H](Cc2ccccc2)C(=O)N[C@H](C(=O)N[C@@H](CC(N)=O)C(=O)NCCCC(=O)N2CCC[C@H]2C(=O)N[C@@H](CCCN=C(N)N)C(=O)N[C@@H](CCCN=C(N)N)C(N)=O)C(C)C)cc1`: the Kb at Vasopressin V2 receptor was 0.0123 µM. The molecule also came in with a pA2 on Vasopressin V1 receptor of 7.99.

On to `CCOc1ccc(C[C@@H](NC(=O)CC23CC4CC(CC(C4)C2)C3)C(=O)N[C@@H](Cc2ccccc2)C(=O)N[C@H](C(=O)N[C@@H](CC(N)=O)C(=O)N[C@@H](CCCCN)C(=O)N2CCC[C@H]2C(=O)N[C@@H](CCCN=C(N)N)C(=O)N[C@@H](CCCN=C(N)N)C(N)=O)C(C)C)cc1`, for which the Kb on Vasopressin V2 receptor was 0.02 µM. For the same molecule, the pA2 on Vasopressin V1 receptor is reported as 8.14.

With `CCOc1ccc(C[C@@H](NC(=O)Cc2ccccc2)C(=O)N[C@@H](Cc2ccccc2)C(=O)N[C@H](C(=O)N[C@@H](CC(N)=O)C(=O)N[C@@H](CCCCN)C(=O)N2CCC[C@@H]2C(=O)N[C@@H](CCCN=C(N)N)C(N)=O)C(C)C)cc1`, the figures for the Effective dose in assay [1] and in assay [3] were 2.9 nM/kg and 0.11 nM/kg, respectively. Moreover, the Ratio in assay [2] was 26.

For the molecule `CCOc1ccc(C[C@@H](NC(=O)CC(C)(C)C)C(=O)N[C@@H](Cc2ccccc2)C(=O)N[C@H](C(=O)N[C@@H](CC(N)=O)C(=O)NCCCC(=O)N2CCC[C@@H]2C(=O)N[C@@H](CCCN=C(N)N)C(=O)N[C@@H](CCCN=C(N)N)C(N)=O)C(C)C)cc1`, the Effective dose in assay [1] was found to be 0.83 nM/kg; in assay [3] it was 0.71 nM/kg. For the same molecule, in assay [2], the Ratio is 1.2.

On to `NCCCC[C@H](NC(=O)[C@H](CC(N)=O)NC(=O)[C@H](CCC(N)=O)NC(=O)[C@H](Cc1ccccc1)NC(=O)[C@@H](Cc1ccc(O)cc1)NC(=O)Cc1ccccc1)C(=O)N1CCC[C@@H]1C(=O)N[C@@H](CCCN=C(N)N)C(N)=O`, for which the results for the Effective dose in assay [1] and in assay [3] were 5 nM/kg and 0.085 nM/kg, respectively. The Ratio in assay [2] was 59.

Regarding `COc1ccc(C[C@@H](NC(=O)Cc2ccccc2)C(=O)N[C@@H](Cc2ccccc2)C(=O)N[C@H](C(=O)N[C@@H](CC(N)=O)C(=O)N[C@@H](CCCCN)C(=O)N2CCC[C@@H]2C(=O)N[C@@H](CCCN=C(N)N)C(N)=O)C(C)C)cc1`, the Effective dose amounted to 6 nM/kg in assay [1] and 0.17 nM/kg in assay [3]. In assay [2], the Ratio worked out at 35.

`CCOc1ccc(C[C@@H](NC(=O)Cc2ccccc2)C(=O)N[C@@H](Cc2ccccc2)C(=O)N[C@H](C(=O)N[C@@H](CC(N)=O)C(=O)NCCCC(=O)N2CCC[C@H]2C(=O)N[C@@H](CCCN=C(N)N)C(=O)N[C@@H](CCCN=C(N)N)C(N)=O)C(C)C)cc1`: the Kb at Vasopressin V2 receptor was 0.0102 µM. At Vasopressin V1 receptor, this molecule gave a pA2 of 8.42.

With `CCOc1ccc(C[C@@H](NC(=O)CC23C[C@H]4C[C@@H](C2)C[C@@H](C3)C4)C(=O)N[C@@H](Cc2ccccc2)C(=O)N[C@H](C(=O)N[C@@H](CC(N)=O)C(=O)NCCCC(=O)N2CCC[C@@H]2C(=O)N[C@@H](CCCN=C(N)N)C(=O)N[C@@H](CCCN=C(N)N)C(N)=O)C(C)C)cc1`, the Effective dose is 0.53 nM/kg in assay [1] and 1.2 nM/kg in assay [3]. Moreover, the Ratio in assay [2] amounted to 0.44.

In the case of `COc1ccc(C[C@@H](NC(=O)Cc2ccccc2)C(=O)N[C@@H](Cc2ccccc2)C(=O)N[C@@H](CCC(N)=O)C(=O)N[C@@H](CC(N)=O)C(=O)N[C@@H](CCCCN)C(=O)N2CCC[C@@H]2C(=O)N[C@@H](CCCN=C(N)N)C(N)=O)cc1`, the Effective dose is > 24 nM/kg in assay [1] and 0.083 nM/kg in assay [3]. Moreover, in assay [2], the Ratio was > 290.

Turning to `CCOc1ccc(C[C@@H](NC(=O)CC(C)(C)C)C(=O)N[C@@H](Cc2ccccc2)C(=O)N[C@@H](CCC(N)=O)C(=O)N[C@@H](CC(N)=O)C(=O)N[C@@H](CCCCN)C(=O)N2CCC[C@@H]2C(=O)N[C@@H](CCCN=C(N)N)C(N)=O)cc1`, the values for the Effective dose in assay [1] and in assay [3] were > 410 nM/kg and 0.27 nM/kg, respectively. Moreover, in assay [2], the Ratio was > 1500.

Take `CCOc1ccc(C[C@@H](NC(=O)CC23CC4CC(CC(C4)C2)C3)C(=O)N[C@@H](Cc2ccccc2)C(=O)N[C@H](C(=O)N[C@@H](CC(N)=O)C(=O)N[C@@H](CCCN=C(N)N)C(=O)N2CCC[C@@H]2C(=O)N[C@@H](CCCN=C(N)N)C(=O)N[C@@H](CCCN=C(N)N)C(N)=O)C(C)C)cc1`: the Effective dose is 0.71 nM/kg in assay [1] and 0.5 nM/kg in assay [3]. The Ratio in assay [2] is 1.4.

Turning to `CCOc1ccc(C[C@@H](NC(=O)Cc2ccccc2)C(=O)N[C@@H](Cc2ccccc2)C(=O)N[C@H](C(=O)N[C@@H](CC(N)=O)C(=O)N[C@@H](CCCCN)C(=O)N2CCC[C@@H]2C(=O)N[C@@H](CCCN=C(N)N)C(=O)N[C@@H](CCCN=C(N)N)C(N)=O)C(C)C)cc1`, the Effective dose is 9.8 nM/kg in assay [1] and 0.24 nM/kg in assay [3]. For the same molecule, in assay [2], the Ratio turned out to be 41.

As for `CCOc1ccc(C[C@@H](NC(=O)CC23CC4CC(CC(C4)C2)C3)C(=O)N[C@@H](Cc2ccccc2)C(=O)N[C@H](C(=O)N[C@@H](CC(N)=O)C(=O)N[C@@H](CCCCN)C(=O)N2CCC[C@@H]2C(=O)N[C@@H](CCCN=C(N)N)C(=O)N[C@@H](CCCN=C(N)N)C(N)=O)C(C)C)cc1`, the Effective dose in assay [1] was found to be 1.4 nM/kg; in assay [3], 0.5 nM/kg. In assay [2], the Ratio is 2.8.

On to `CCOc1ccc(C[C@@H](NC(=O)CC23CC4CC(CC(C4)C2)C3)C(=O)N[C@@H](Cc2ccccc2)C(=O)N[C@H](C(=O)N[C@@H](CC(N)=O)C(=O)N[C@@H](CCCN=C(N)N)C(=O)N2CCC[C@@H]2C(=O)N[C@@H](CCCN=C(N)N)C(N)=O)C(C)C)cc1`, for which the Effective dose in assay [1] was 1.4 nM/kg; in assay [3] it was 0.66 nM/kg. For the same molecule, in assay [2], the Ratio is 2.1.

For the molecule `CCOc1ccc(C[C@H]2NC(=O)CC3(CCCCC3)SSC[C@H](C(=O)N3CCC[C@H]3C(=O)N[C@@H](CCCN=C(N)N)C(=O)NCC(N)=O)NC(=O)[C@@H](CC(N)=O)NC(=O)[C@H](C(C)C)NC(=O)[C@@H](Cc3ccccc3)NC2=O)cc1`, the Effective dose in assay [1] turned out to be 1.1 nM/kg; in assay [3], 0.45 nM/kg. On Vasopressin V1 receptor, this molecule yielded a pA2 of 8.22.

As to `CCOc1ccc(C[C@H]2NC(=O)CC3(CCCCC3)SSC[C@H](C(=O)N3CCC[C@H]3C(=O)N[C@@H](CCCN=C(N)N)C(N)=O)NC(=O)[C@@H](CC(N)=O)NC(=O)[C@H](C(C)C)NC(=O)[C@@H](Cc3ccccc3)NC2=O)cc1`, the Effective dose in assay [1] was determined as 1.5 nM/kg; in assay [3], 0.45 nM/kg. For the same molecule, in assay [2], the Ratio turned out to be 3.3.

Take `CCOc1ccc(C[C@@H](NC(=O)Cc2ccccc2)C(=O)N[C@@H](Cc2ccccc2)C(=O)N[C@@H](CCC(N)=O)C(=O)N[C@@H](CC(N)=O)C(=O)N[C@@H](CCCCN)C(=O)N2CCC[C@@H]2C(=O)N[C@@H](CCCN=C(N)N)C(N)=O)cc1`: the Effective dose in assay [1] stood at 40 nM/kg; in assay [3], 0.07 nM/kg. The Ratio in assay [2] stood at 570.

For the molecule `CC(C)[C@H](NC(=O)[C@H](Cc1ccccc1)NC(=O)[C@@H](Cc1ccc(O)cc1)NC(=O)Cc1ccccc1)C(=O)N[C@@H](CC(N)=O)C(=O)N[C@@H](CCCN=C(N)N)C(=O)N1CCC[C@H]1C(=O)N[C@@H](CCCN=C(N)N)C(=O)N[C@@H](CCCN=C(N)N)C(N)=O`, the pA2 at Vasopressin V1 receptor amounted to 8.62.

Consider `CCOc1ccc(C[C@@H](NC(=O)Cc2ccccc2)C(=O)N[C@@H](Cc2ccccc2)C(=O)N[C@H](C(=O)N[C@@H](CC(N)=O)C(=O)NCCCC(=O)N2CCC[C@@H]2C(=O)N[C@@H](CCCN=C(N)N)C(=O)N[C@@H](CCCN=C(N)N)C(N)=O)C(C)C)cc1`, for which the results for the Effective dose in assay [1] and in assay [3] were 0.69 nM/kg and 0.26 nM/kg, respectively. In addition, the Ratio in assay [2] is 2.7.

For `CC(C)[C@H](NC(=O)[C@H](Cc1ccccc1)NC(=O)[C@@H](Cc1ccc(O)cc1)NC(=O)CC12CC3CC(CC(C3)C1)C2)C(=O)N[C@@H](CC(N)=O)C(=O)N[C@@H](CCCN=C(N)N)C(=O)N1CCC[C@@H]1C(=O)N[C@@H](CCCN=C(N)N)C(=O)N[C@@H](CCCN=C(N)N)C(N)=O`, the Effective dose in assay [1] is 1.7 nM/kg. In addition, in assay [2], the Ratio was 4.3.

On to `CCOc1ccc(C[C@@H](NC(=O)CC23CC4CC(CC(C4)C2)C3)C(=O)N[C@@H](Cc2ccccc2)C(=O)N[C@H](C(=O)N[C@@H](CC(N)=O)C(=O)N[C@@H](CCCN)C(=O)N2CCC[C@@H]2C(=O)N[C@@H](CCCN=C(N)N)C(N)=O)C(C)C)cc1`, for which the Effective dose in assay [1] was found to be 1.1 nM/kg; in assay [3], 3.2 nM/kg. In assay [2], the Ratio was determined as 0.3.

On to `CCOc1ccc(C[C@@H](NC(=O)CC(C)(C)C)C(=O)N[C@@H](Cc2ccccc2)C(=O)N[C@H](C(=O)N[C@@H](CC(N)=O)C(=O)N[C@@H](CCCCN)C(=O)N2CCC[C@@H]2C(=O)N[C@@H](CCCN=C(N)N)C(N)=O)C(C)C)cc1`, for which the Effective dose in assay [1] was > 7 nM/kg; in assay [3], 0.17 nM/kg. Also, the Ratio in assay [2] is 41.

Regarding `CCOc1ccc(C[C@@H](NC(=O)CC23CC4CC(CC(C4)C2)C3)C(=O)N[C@@H](Cc2ccccc2)C(=O)N[C@H](C(=O)N[C@@H](CC(N)=O)C(=O)N[C@@H](CCCN)C(=O)N2CCC[C@@H]2C(=O)N[C@@H](CCCN=C(N)N)C(=O)N[C@@H](CCCN=C(N)N)C(N)=O)C(C)C)cc1`, the Effective dose in assay [1] turned out to be 0.9 nM/kg; in assay [3], 1.6 nM/kg. In addition, the Ratio in assay [2] turned out to be 0.6.

The molecule `CC(C)[C@H](NC(=O)[C@H](Cc1ccccc1)NC(=O)[C@@H](Cc1ccc(O)cc1)NC(=O)Cc1ccccc1)C(=O)N[C@@H](CC(N)=O)C(=O)N[C@@H](CCCN=C(N)N)C(=O)N1CCC[C@@H]1C(=O)N[C@@H](CCCN=C(N)N)C(=O)N[C@@H](CCCN=C(N)N)C(N)=O` returned an Effective dose in assay [3] of 0.16 nM/kg.

On to `CCOc1ccc(C[C@@H](NC(=O)Cc2ccccc2)C(=O)N[C@@H](Cc2ccccc2)C(=O)N[C@H](C(=O)N[C@@H](CC(N)=O)C(=O)N[C@@H](CCCN)C(=O)N2CCC[C@@H]2C(=O)N[C@@H](CCCN=C(N)N)C(=O)N[C@@H](CCCN=C(N)N)C(N)=O)C(C)C)cc1`, for which the Effective dose in assay [1] amounted to 4 nM/kg; in assay [3], 0.29 nM/kg. Besides, in assay [2], the Ratio was determined as 14.

As to `CCOc1ccc(C[C@@H](NC(=O)CC23CC4CC(CC(C4)C2)C3)C(=O)N[C@@H](Cc2ccccc2)C(=O)N[C@H](C(=O)N[C@@H](CC(N)=O)C(=O)N[C@@H](CCCCN)C(=O)N2CCC[C@@H]2C(=O)N[C@@H](CCCN=C(N)N)C(N)=O)C(C)C)cc1`, the Effective dose was determined as 1.1 nM/kg in assay [1] and 0.66 nM/kg in assay [3]. Also, the Ratio in assay [2] was 1.7.
